The values below come from PMC9545868, “Structure‐Based Demystification of Radical Catalysis by a Coenzyme B12 Dependent Enzyme—Crystallographic Study of Glutamate Mutase with Cofactor Homologues” (Angewandte Chemie (International Ed. in English), 2022).

For this assay, the target named is T1, glutamate mutase (GM) (Clostridium cochlearium, UniProt P80077+P80078).
T1 construct: gene glmE; hetero-tetramer of two epsilon and two sigma subunits; construct details only in the supplement
T1 sequence (P80077 1-483): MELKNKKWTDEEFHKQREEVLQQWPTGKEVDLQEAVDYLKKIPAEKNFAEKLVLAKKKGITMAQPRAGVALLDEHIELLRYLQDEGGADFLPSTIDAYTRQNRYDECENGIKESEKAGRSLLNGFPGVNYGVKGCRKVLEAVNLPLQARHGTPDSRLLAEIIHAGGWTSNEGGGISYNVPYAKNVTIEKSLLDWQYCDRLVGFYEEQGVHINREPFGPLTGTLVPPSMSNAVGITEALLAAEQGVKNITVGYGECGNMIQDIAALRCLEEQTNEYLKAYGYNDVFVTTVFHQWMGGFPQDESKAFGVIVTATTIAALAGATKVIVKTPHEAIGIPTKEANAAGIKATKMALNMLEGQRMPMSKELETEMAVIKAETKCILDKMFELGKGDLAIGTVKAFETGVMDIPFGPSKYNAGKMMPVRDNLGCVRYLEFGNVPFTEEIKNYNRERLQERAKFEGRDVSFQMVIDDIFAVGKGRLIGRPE
T1 sequence (P80078 1-137): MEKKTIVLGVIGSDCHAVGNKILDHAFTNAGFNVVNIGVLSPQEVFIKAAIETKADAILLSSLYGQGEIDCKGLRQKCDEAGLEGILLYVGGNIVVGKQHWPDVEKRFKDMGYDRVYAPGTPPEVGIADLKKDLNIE
Description: X-ray crystal structures, […] and […] Å. Format: binding. As to conditions: pseudo-substrate in the substrate site of the epsilon subunit (arginine claw R66, R100, R149); with AdoMeCbl or AdoEtCbl bound.

For the compound `O=C(O)[C@@H](O)[C@H](O)C(=O)O` [(S,S)‐tartrate], the “X-ray crystal structures, 1.8 and 2.1 Å” value was “strong polar binding interactions with the carboxylate groups of an (S,S)‐tartrate ion”.
